Measured values taken from PMC9965539, “Adverse Toxic Effects of Tyrosine Kinase Inhibitors on Non-Target Zebrafish Liver (ZFL) Cells” (International Journal of Molecular Sciences, 2023).
pIC50: −log10 of the molar value. Like-named read-outs stand apart in the source and are kept apart here.

Columns and labels:
rats = system: rats; set-up: method as in EMEA documents (69); settings: ref EMEA documents (69); cited from earlier work
[1] = system: certain target cancer cells; set-up: method as in ref 56, 57 (DAS), 58, 59 (REG); settings: in vitro; 57 (DAS), 58, 59 (REG); cited from earlier work
mammalian cells = system: mammalian cells; set-up: method as in EMEA documents (69); settings: ref EMEA documents (69); cited from earlier work
[2] = system: primary human hepatocytes; settings: cited from earlier work
[3] = system: targeted and non-targeted human chronic myeloid leukemia cancer cells; set-up: method as in doi:10.1182/blood.V124.21.5510.5510; settings: therapeutic concentrations (NIL 48 h); cited from earlier work
HepG2 cells [4] = settings: 20 μM; ref Mingard et al. 46; cited from earlier work
primary rat hepatocytes = settings: cited from earlier work
[5] = system: zebrafish liver cells (ZFL); test: Micronucleus detection by flow cytometry; assay type: cell-based; settings: 72 h
Description: ZFL cells were seeded onto 24-well culture plates (Nunclon) at a density of 35,000 cells per well for 24 h. […] Etoposide (0.17 μM and 0.68 μM) was used as a positive control. After 72 h, cells were placed on ice for 20 min, and subsequently a 0.05 mg/mL EMA solution was added to each well. The cells were placed on ice for 30 min and exposed to light for photoactivation of the EMA fluorochrome. Afterwards, cells were washed and resuspended in lysis solution (0.584 mg/mL NaCl, 1 mg/mL sodium citrate, and 0.3 μL/mL Triton X-100) containing 0.2 μM SYTOX Green and 0.25 mg/mL RNAse A, and incubated for 1 h in the dark at 37 °C. After incubation, lysis solution (85.6 mg/mL sucrose and 15 mg/mL citric acid) containing 0.2 μM SYTOX Green was added to the wells of the plate and incubated for a further 30 min at room temperature in the dark. Cells were analyzed on the same day using MACSQuant Analyzer 10 flow cytometer. MASCQuantify Software 2.11. was used to analyze each sample, and the percentage of micronuclei was determined after the acquisition of a total of 20,000 gated nuclei events, excluding EMA-positive events. One-way ANOVA with post hoc multiple comparison Dunett’s test using GraphPad Prism V6 (GraphPad Software, Carlsbad, CA, USA) was carried out. * p < 0.05 and *** p < 0.0001 were considered statistically significant.

[6] = system: zebrafish liver cells (ZFL); test: Cell cycle analysis with flow cytometry; assay type: cell-based; settings: 72 h; for effect on cell cycle progression: concentration-dependent, parallel decrease in S-phase fraction
Description: ZFL cells were seeded onto T25 culture plates at a density of 450,000 cells for 24 h. […] The positive control was etoposide (0.17 μM), which is known to arrest cells in the G2/M phase of the cell cycle. After 72 h, cells were trypsinized (0.25% trypsin-EDTA) and washed with 1x PBS before fixation in 4% paraformaldehyde (PFA). For flow cytometric analysis, fixed cells were washed in cold 1x PBS and stained with Hoechst 33258 dye (diluted in 0.1% Triton X-100 1:500) as described by Stampar et al.. Flow cytometric measurements were performed using a MACSQuant Analyzer 10 and the experiment was repeated three times independently. Each time, 20,000 single cells were recorded per experimental point. The data obtained were analyzed using FlowJo V10 software (Becton Dickinson, Franklin Lakes, NJ, USA). Statistical analysis for cell cycle was performed by the two-way ANOVA with Fisher’s LSD test using GraphPad Prism V6 (GraphPad Software, La Jolla, CA, USA). * p < 0.05, ** (p < 0.01), *** (p < 0.001) were considered statistically significant.

[7] = MTS assay, viability of ZFL cells; assay type: cell-based, zebrafish; settings: zebrafish, ZFL cells (zebrafish liver cell line), ZFL cells, read-out: IC50 for TKIs Cytotoxicity (95% Confidence Interval); for IC50 at 24 h: 24 h exposure; for IC50 at 48 h: 48 h exposure; for IC50 at 72 h: 72 h exposure
Description: (§1) The viability of ZFL cells after 24, 48, and 72 h of exposure to TKIs was determined using the tetrazolium-based (MTS) assay (Cell Titer 96 AQueous Non-Radioactive Cell Proliferation Assay; Promega, Madison, WI, USA) as previously described by Novak et al.. Cells were seeded in 96-well microtiter plates (Corning Costar Corporation, New York, NY, USA) at a density of 7000 cells/well. […] Three independent experiments were performed, each with five replicates per treatment point. The statistical significance between the treated groups and the solvent control was determined by Student’s t-test using GraphPad Prism V6 (GraphPad Software, La Jolla, CA, USA). *** (p < 0.001)was considered statistically significant.

[8] = system: zebrafish liver cells (ZFL); test: MTS assay, viability of ZFL cells; assay type: cell-based; settings: 24, 48, 72 h; dose- and time-dependent; ERL and NIL up to their maximum solubility
Description: as §1

[9] = system: zebrafish liver cells (ZFL); test: Propidium iodide live/dead staining by flow cytometry; assay type: cell-based
Description: Benzo[a]pyrene (50 μM), an indirect-acting genotoxic agent which requires metabolic activation for its genotoxic effects, and etoposide (0.17 μM), a direct-acting genotoxic agent, were selected as positive controls. After 72 h, floating and adherent cells were collected, resuspended in ice-cold 1x PBS, and immediately analyzed. Propidium iodide (PI) at a final concentration of 1 μg/mL was added to the cells 5 min before the start of measurements using the MACSQuant Analyzer 10 flow cytometer (Miltenyi Biotech, Bergisch Gladbach, Germany). MASCQuantifiy software (Miltenyi Biotech, Bergisch Gladbach, Germany) was used to quantify PI negative and positive cells. The experiments were repeated three times independently. Statistical significance between the treated groups and control was determined by one-way ANOVA with post hoc multiple comparison Dunett’s test using GraphPad Prism V6 (GraphPad Software, La Jolla, CA, USA). * p < 0.05 was considered statistically significant.

Huh-7 cells [10] = settings: 72 h; cited from earlier work
[11] = system: liver of male albino rats; set-up: method as in ref 64 = [64]; 64. Diab A.A.A. El-aziz S.A.A. Hendawy A.A. Hamza R.Z. Salim D.M.M. Protective Effect of Antioxidants Combinations (Vit A, C, E and Selenium) (Antox Drug) against Oxidative Stress and Cellular Toxicit; settings: 10 mg/kg body weight daily for two weeks; cited from earlier work
[12] = system: human hepatocellular carcinoma SMMC-7721 cells; settings: approximately 5 μM, 24 h; cited from earlier work
[13] = system: human hepatocellular carcinoma SK-HEP-1 cells; settings: approximately 10 μM, 24 h; cited from earlier work
[14] = system: Huh7, A549 and MCF-7 cells; settings: cited from earlier work
Huh-7 cells [15] = system: Huh-7 cells; set-up: method as in PMID 32397371; settings: 48 h exposure; cited from earlier work
HepG2 cells [16] = system: HepG2 cells; set-up: method as in PMID 32397371; settings: 48 h exposure; cited from earlier work
mice = system: mice; set-up: method as in EMEA documents (69); settings: ref EMEA documents (69); cited from earlier work
HepG2 cells [17] = system: HepG2 cells; set-up: method as in PMID 32913557; settings: 1 µM for 24 h; cited from earlier work
Swiss albino mice = settings: cited from earlier work
[18] = system: human colon adenocarcinoma HT-29 cell line; settings: 16 uM for 12 h; cited from earlier work

Cc1nc(Nc2ncc(C(=O)Nc3c(C)cccc3Cl)s2)cc(N2CCN(CCO)CC2)n1 [DAS, dasatinib]
in vivo micronucleus assay (rats): negative | DNA damage assessed by comet assay [1]: induce DNA damage | structural chromosomal aberrations (mammalian cells): increased the number of structural chromosomal aberrations | cytotoxicity [2]: not to primary human hepatocytes | centromere positive micronuclei [3]: increased the number of centromere positive micronuclei | apoptosis (HepG2 cells [4]): induced apoptosis | pIC50 (primary rat hepatocytes; 48 h exposure, read-out: 50% growth inhibition): 4.68 | cytotoxicity (primary rat hepatocytes): cytotoxic only to primary rat hepatocytes | MNi in representative dot plot ([5]; 0.015 μM): increased amount of MNi | MNi in representative dot plot ([5]; 0.03 μM): increased amount of MNi | MNi in representative dot plot ([5]; 0.06 μM): low amount of nuclei and MNi | concentration that induced G0/G1 cell cycle arrest with decrease in number of cells in S phase [6]: 0.03 µM | effect on cell cycle progression [6]: arrest of the cell cycle in the G0/G1 phase | IC50 at 24 h [7]: 0.64 µM | IC50 at 48 h [7]: 0.24 µM | IC50 at 72 h [7]: 0.16 µM | viability of the ZFL cells [8]: reduced | FSC/SSC dot plot shift, apoptosis ([9]; all tested DAS concentrations (0.015-0.06 μM), 72 h): induction of apoptosis | exposed cells degraded ([9]; lowest DAS concentration (0.015 μM), 72 h): more than 50%

CNC(=O)c1cc(Oc2ccc(NC(=O)Nc3ccc(Cl)c(C(F)(F)F)c3)cc2)ccn1 [SOR, sorafenib]
concentration with cell cycle arrest (Huh-7 cells [10]): 3.7 µM | DNA damage in liver (comet assay in vivo) [11]: induced DNA damage | MNi formation [12]: did not increase MNi formation | MNi formation [13]: did not increase MNi formation | structural chromosomal aberrations (mammalian cells): increased the number of structural chromosomal aberrations | pIC50 ([2]; 24 h): 5.00 | DNA damage in vitro [14]: induced DNA damage | concentration with significant change in cell viability (Huh-7 cells [15]): 2 µM | concentration with significant change in cell viability (HepG2 cells [16]): 5 µM | in vivo micronucleus assay (mice): negative | pIC50 (primary rat hepatocytes; 24 h, read-out: IC50): 5.26 | DNA strand breaks (alkaline comet assay) (HepG2 cells [17]): did not significantly increase | MNi frequency ([5]; non-cytotoxic concentrations): did not significantly increase | increase in MNi formation (Swiss albino mice): approximately 10 fold | concentration that induced G0/G1 cell cycle arrest with decrease in number of cells in S phase [6]: 1 µM | effect on cell cycle progression [6]: arrest of the cell cycle in the G0/G1 phase | IC50 at 24 h [7]: 6.93 µM | IC50 at 48 h [7]: 3.36 µM | IC50 at 72 h [7]: 2.71 µM | viability of the ZFL cells [8]: reduced | percentage of PI negative cells ([9]; 72 h exposure, low concentrations): did not significantly decrease | DNA double strand breaks (neutral comet assay) [18]: did not significantly increase DNA double strand breaks
